Laboratory results: PMC6201930 (PLoS ONE, 2018)
Several values for one entry are separate records, joined by “and”; a condition that tells them apart may be missing. Equal values may be shown once. Read-outs that look alike come from different tables or passages of the source.

Key:
[1] = tested on: activated human peripheral blood mononuclear cells (PBMCs); experiment: Cytotoxicity in stimulated PBMCs (CellTitre-Glo ATP); conditions: for CC50: read-out: Stimulated PBMC CC50, individual determinations (S1 File)
Excerpt: (§1) When considering compounds for potential readthrough therapy it is important to monitor cellular and animal safety. In order to determine the most promising compounds to further evaluate in in vivo safety, we measured cytotoxicity in two different cell types. We used activated human peripheral blood mononuclear cells (PBMCs) (Table 2 and Fig 2D and 2E). PBMCs are a primary cell that when activated with phytohaemagglutinin (PHA) expand quickly and are commonly used as an in vitro surrogate for rapidly growing cells in the human body to evaluate cytotoxicity. Prior to advancing compounds into human studies, safety evaluation in rodents is performed. As an in vitro surrogate for rodent toxicity, we used primary mouse myoblasts.
(§2) Frozen human Peripheral Blood Mononuclear Cells (PBMCs) were obtained from […] (Alameda, CA, Cat# PB003F) from a single donor. […] Plates were incubated at 37°C with 5% CO2 for 4 hours prior to compound treatment. Compounds were serially diluted and added to the plates. Plates were incubated at 37°C, 5% CO2 incubator, for 72 hours prior to determinations of ATP levels. Cell viability was determined using a chemiluminescent assay to monitor adenosine triphosphate (ATP) levels in live cells (CellTitre-Glo; CTG; Promega, Cat#G7571). Methods were performed per the manufacturer’s instructions.

[2] = in vitro; conditions: human
Excerpt: as §1, §2

[3] = in vivo; conditions: zebrafish
Description: (§3) All neuromast cytotoxicity assays were done at Biobide–BBD Biophenix SL (Gipuzkoa, Spain). […] Compounds were tested at 5 doses. After 24 hours of exposure embryos were incubated in DASPEI (2-(4-(dimethylamino)styryl) -N-Ethylpyridinium Iodide) for neuromast staining. Images of each embryo were taken and neuromasts counted. A compound was classified as ototoxic when the number of neuromasts in the treated group was less than that in the untreated control group (One Way ANOVA, multiple comparisons vs. vehicle).

[4] = tested on: fLuc mRNA harboring a UGA nonsense mutation at codon 190 (fLuc-190-NS); assay type: biochemical, rabbit
Excerpt: ThefLuc-190-NS assay is an in vitro rabbit reticulocyte lysate translation of an fLuc mRNA harboring a UGA nonsense mutation at codon 190 (fLuc-190-NS). It is believed that positively charged aminoglycosides are poorly taken up by cells, and we used this cell-free readthrough assay to eliminate the potential variable of cell uptake when measuring readthrough potency. […] Readthrough protein was detected using a HA-HIS MSD immunoassay described previously.
This cell-free translation assay used synthetic LUC mRNAs harboring an EMCV IRES and LUC codon 190-UGA premature stop codon prepared using the MegaScript in vitro transcription kit (Ambion). Translation reactions were done with the Rabbit Reticulocyte Lysate System (Promega) with 100 ng RNA and increasing concentrations of aminoglycosides. The amount of luminescence produced was determined after approximately 4 hours using a Viewlux CCD imager (Perkin-Elmer). Fold suppression over background was calculated as (aminoglycoside light units/PBS light units).

[5] = tested on: primary mouse myoblasts; experiment: Cytotoxicity in myoblasts; conditions: read-out: Myoblast CC50; individual determinations (S1 File)
[6] = Neuromast toxicity assay (DASPEI staining); conditions: zebrafish, zebrafish embryos 5 dpf, neuromasts (hair cells), other: embryos exposed to the drug in 24-well plates, zebrafish embryos 5 dpf
Description: as §3

[7] = Stimulated PBMC (CC50), PHA/IL-2 stimulated, 72 hours, average ± SD
[8] = Stimulated PBMC CC50, AVERAGE (S1 File)
[9] = AVERAGE (S1 File), unit not given for EC5X
[10] = individual experiments (S1 File)
[11] = individual experiments (S1 File), unit not printed for EC5X (EC2X of the sheet in uM)

Row | SMILES | CC50 [1] | CC50 [2, 7] | CC50 [2, 8] | CC50 ([3]; Neuromast (CC50), zebrafish embryos 5 dpf, 24 hours exposure, maximum of two measurements) | CC50 ([3]; Neuromast CC50, individual determinations (S1 File)) | fLuc-190-NS EC2X ([4]; AVERAGE (S1 File)) | fLuc-190-NS MaxFold ([4]; AVERAGE (S1 File)) | fLuc-190-NS EC5X [4, 9] | fLuc-190-NS EC2X ([4]; cell-free, average ± SD) | fLuc-190-NS MaxFold ([4]; cell-free, average ± SD) | fLuc-190-NS EC2X [4, 10] | fLuc-190-NS MaxFold [4, 10] | fLuc-190-NS EC5X [4, 11] | safety window (average CC50 / average EC2X) ([1]; PBMCs, compared with NB84, NB124 or G418, 95% confidence limits) | CC50 at 72 h [2, 7] | CC50 at 72 h [2, 8] | CC50 at 72 h ([2]; Stimulated PBMC CC50, individual determinations (S1 File)) | CC50 [5] | CC50 at 24 h ([6]; Neuromast (CC50), 24 hours exposure, maximum of two measurements) | CC50 at 24 h ([6]; Neuromast CC50, AVERAGE (S1 File))
1 | CN[C@@H]1[C@@H](O)[C@@H](O[C@@H]2[C@@H](O)[C@H](O[C@H]3O[C@H]([C@@H](C)O)[C@@H](O)[C@H](O)[C@H]3N)[C@@H](N)C[C@H]2N)OC[C@]1(C)O [G418, reference compound] | 270 µM and 289 µM and 294 µM and 295 µM and 372 µM and 440 µM and 458 µM and 473 µM and 841 µM and 853 µM and 914 µM and 1060 µM | 546 ± 286 µM | 546 µM | 2.8 ± 1.2 µM | 1.9 µM | 0.0064 µM | 53.0 | 0.0260 | 0.0064 ± 0.0002 µM | 53 ± 2 fold | 0.0067 µM and 0.0063 µM | 51.05 and 54.30 and 53.65 | 0.0261 and 0.0252 and 0.0267 |  |  |  |  |  |  | 
2 | CN[C@@H]1[C@@H](O)[C@@H](O[C@@H]2[C@@H](O)[C@H](O[C@H]3O[C@H](CO)[C@@H](O)[C@H](O)[C@H]3N)[C@@H](N)C[C@H]2N)OC[C@]1(C)O (stereo in doubt) [Gentamicin X2, gentamicin X2] | 2590 µM and 2630 µM and 2940 µM |  |  |  |  | 0.0288 µM | 195.3 | 0.0696 | 0.029 ± 0.009 µM | 195 ± 18 fold | 0.0300 µM and 0.0373 µM and 0.0192 µM | 193.99 and 177.60 and 214.25 | 0.0904 and 0.0449 and 0.0734 | statistically better safety window | 2970 ± 533 µM | 2970 µM | 3740 µM | 614 µM and 402 µM and 481 µM and 324 µM and 1880 µM and 1300 µM | 14 ± 7 µM | 13.9 µM
